Experimental data: patent publication US20210386829A1, “COMPOSITIONS AND METHODS FOR MODULATING CGRP SIGNALING TO REGULATE INNATE LYMPHOID CELL INFLAMMATORY RESPONSES” (The Broad Institute, Inc., priority 2018, published 2021)

Test system: lung-resident ILCs
Assay: SMART-Seq2 plate-based scRNA-seq of lung-resident ILCs from PBS-, IL-25- or IL-33-treated mice, differential gene expression by logistic regression (Tables 3, 4)
Assay type: in vivo, mouse
Description: Mice and in vivo ILC activation. C57B1/6J mice were purchased from the Jackson Laboratory. Nmur1-LacZ reporter mice with a LacZ cassette knocked into the Nmur1 locus were rederived from Nmur1^tm1.1(KOMP)Vlcg sperm obtained from the trans-NIH Knock-Out Mouse Project (KOMP) Repository. NMU-deficient mice (NMU-KO) were rederived from B6.129S2-Nmu<tm1Mko> embryos from the RIKEN BioResource Center. For experiments with Nmur1-LacZ (Nmur1-KO) and NMU-KO mice, littermates that were either homozygous or heterozygous for the wild type allele were used as controls. Mice were housed under specific-pathogen-free conditions. For experiments, mice were matched for sex and age, and most mice were 6-10 weeks old. Where indicated, mice were anesthetized with Isoflurane and treated intranasally with the indicated stimuli (500 ng IL-25, 500 ng IL-33, or 20 μg Neuromedin U) daily for three consecutive days. The total administered volume was 20 μl for all conditions. Mice were randomly assigned to treatment groups after matching for sex and age. […] Mice were treated intranasally with 10 μg HDM on day 0, 7, 8, and 9, prior to sacrifice on day 10. All experiments were conducted in accordance with animal protocols approved by the Harvard Medical Area Standing Committee on Animals or BWH IACUC.
Fluorescence-activated cell sorting of innate lymphoid cells. After dissociation, single cell suspensions were incubated with CD90.2 MicroBeads (Miltenyi Biotec) on ice and enriched for CD90.2^+ cells by magnetic separation using LS columns according to the manufacturer's protocol. CD90.2^+ lung cells were then stained on ice with antibodies for sorting. ILCs were defined as 7AAD^− CD45^+ CD90.2^+ CD127^+ Lineage (CD11b, CD11c, CD19, NK1.1, […], CD4, CD8a, TCRβ, TCRγδ)^− cells and sorted on a BD FACS Aria (BD Biosciences).
For full-length scRNA-Seq, single ILCs were sorted into 96-well plates containing 5 ul TCL Buffer (QIAGEN) with 1% 2-Mercaptoethanol, centrifuged and frozen at −80° C. SMART-Seq2 protocol was carried out as previously described^23 with minor modifications in the reverse transcription step. cDNA was amplified with 22 cycles and fragmented with one-eighth of the standard Illumina NexteraXT reaction volume. Single-cell libraries were pooled and paired-end sequenced (38 bp×2) with a 75 cycle Nextseq 500 high output V2 kit.
Analysis of SMART-Seq2 plate-based scRNA-Seq data. Reads were aligned to mm10 using Kallisto (Bray, N. L., Pimentel, H., Meisted, P. & Pachter, L. Near-optimal probabilistic RNA-seq quantification. Nat Biotechnol 134, 525-527, doi:10.1038/nbt.3519 (2016)) quant, version 0.42.3. The R package tximport (Soneson, C., Love, M. I. & Robinson, M. D. Differential analyses for RNA-seq: transcript-level estimates improve gene-level inferences [version 2; referees: 2 approved]. F1000Research 4, doi:10.12688/f1000research.7563.2 (2016)), version 1.2.0, was used to convert the output to gene counts and traditional TPM values. Because of the variability in read counts per cell across plates, even from the same condition, as well as in the number of genes per cell across conditions, QC was performed for each of eight plates individually in order to remove cells that were outliers with respect to either measure. Out of 752 cells, 606 cells met QC criteria (234 from control, 152 from IL-25 treated mice, and 220 from IL-33 treated mice), and the number of genes per cell in this set ranged from 1,625 to 6,375. Genes that were not expressed with log(TPM)>2.5 in at least two cells were removed from further analysis. Subsequent analysis proceeded analogously to the droplet-based RNA-seq analysis, with parameter settings that reflected both the wider dynamic range of expression and much smaller cell numbers. The minimum ILC signature score required in ILC type assignment was 0.3. Variable genes were identified by running MeanVarPlot with x.low.cutoff=0.1, y.cutoff=1.5, and x.high.cutoff=10, resulting in a set of 519 genes. […]

IL33
0610031J06Rik expression coeff: 1.33 | 1700017B05Rik expression coeff: −1.5 | 1700113H08Rik expression coeff: −1.32 | 4632428N05Rik expression coeff: 1.58 | AA467197 expression coeff: 2.99 | AI593442 expression coeff: −3.15 | AI836003 expression coeff: −1.26 | AW112010 expression coeff: 0.998 | Abtb2 expression coeff: 1.34 | Acot7 expression coeff: 1.78 | Adrbk1 expression coeff: 1.08 | Adsl expression coeff: −0.98 | Ahcyl2 expression coeff: −1.24 | Amd1 expression coeff: −1.75 | Anxa2 expression coeff: 1.81 | Ap3d1 expression coeff: 0.94 | Arf5 expression coeff: 0.972 | Arhgap1 expression coeff: 1.12 | Arhgap26 expression coeff: 1.3 | Asl expression coeff: 1.31 | Asph expression coeff: −1.56 | Atp8b4 expression coeff: 1.07 | Atxn7l3b expression coeff: 0.957 | Bcl2a1d expression coeff: 0.97 | Bcl3 expression coeff: 1.42 | Bcl6 expression coeff: 1.98 | Bmp2 expression coeff: −2.03 | Brix1 expression coeff: −1.21 | C1qbp expression coeff: −1.08 | Cap1 expression coeff: 1.24 | Cblb expression coeff: 0.969 | Ccdc50 expression coeff: 0.948 | Ccdc142 expression coeff: −1.56 | Ccng1 expression coeff: 0.916 | Ccr2 expression coeff: −1.11 | Cd247 expression coeff: 1.52 | Chdh expression coeff: 1.07 | Chordc1 expression coeff: 1.09 | Chst11 expression coeff: 1.25 | Cirbp expression coeff: −1.67 | Commd10 expression coeff: −1.3 | Cox10 expression coeff: 0.894 | Cpsf7 expression coeff: 1.13 | Crlf2 expression coeff: 1.16 | Csf1 expression coeff: −1.61 | Cst7 expression coeff: 1.5 | Ctla4 expression coeff: 2.65 | Ctsw expression coeff: 1.07 | Cybrd1 expression coeff: −1.22 | Dcaf12 expression coeff: 0.975 | Ddrgk1 expression coeff: −0.935 | Ddx20 expression coeff: −1.92 | Ddx58 expression coeff: 0.912 | Dennd5a expression coeff: 0.993 | Dgka expression coeff: 1.02 | Dhx35 expression coeff: −1.51 | Dhx37 expression coeff: −0.889 | Dhx58 expression coeff: 2.39 | Dkk3 expression coeff: 0.959 | Dock10 expression coeff: −0.886 | E030030I06Rik expression coeff: −1.01 | Ecm1 expression coeff: 1.16 | Endod1 expression coeff: 1.51 | Epsti1 expression coeff: 1.72 | Eva1b expression coeff: 1.29 | Exosc4 expression coeff: −0.925 | Extl3 expression coeff: −1.19 | Fam118a expression coeff: −0.991 | Fbxl21 expression coeff: −2.6 | Ffar2 expression coeff: 1.38 | Fhl2 expression coeff: −0.933 | Fosb expression coeff: −0.948 | Foxo3 expression coeff: 1.17 | Fus expression coeff: −0.954 | Gal3st3 expression coeff: −1.08 | Gba expression coeff: 0.976 | Gbp4 expression coeff: 0.935 | Gbp6 expression coeff: 1.87 | Gbp9 expression coeff: 1.12 | Gga1 expression coeff: 1.33 | Gigyf1 expression coeff: −0.966 | Glrx expression coeff: 1.26 | Gm12250 expression coeff: 3.39 | Gnai2 expression coeff: 1.04 | Gng2 expression coeff: 1.35 | Gnl3l expression coeff: −1.25 | Gp49a expression coeff: 1.62 | Gpr108 expression coeff: 0.909 | Grn expression coeff: 1.55 | Gskip expression coeff: 1.72 | Gucd1 expression coeff: 1.09 | H2-T9 expression coeff: 1.1 | H2-T10 expression coeff: 0.906 | H2-T22 expression coeff: 1.27 | Herc6 expression coeff: 1.21 | Hpcal1 expression coeff: 1.26 | Hsph1 expression coeff: 1.26 | Idh2 expression coeff: −1.43 | Ifi35 expression coeff: 0.95 | Ifngr2 expression coeff: −0.881 | Ifrd2 expression coeff: −1.74 | Igfbp4 expression coeff: −2.3 | Igsf5 expression coeff: −1.13 | Il2rb expression coeff: 1.27 | Il5 expression coeff: 1.34 | Il13 expression coeff: 1.57 | Impact expression coeff: −1.54 | Inpp1 expression coeff: 1.29 | Inpp4b expression coeff: −0.999 | Inpp5b expression coeff: 1.22 | Irf4 expression coeff: 1.58 | Irf7 expression coeff: 1.43 | Isg15 expression coeff: 3.16 | Isg20 expression coeff: 2.26 | Itgae expression coeff: 1.21 | Kit expression coeff: −1.23 | Krit1 expression coeff: 1.04 | Lamp2 expression coeff: 0.996 | Lancl1 expression coeff: −1.58 | Lat2 expression coeff: 1.05 | Lcmt2 expression coeff: −1.12 | Lgals3bp expression coeff: 1.95 | Lgals3 expression coeff: 1.4 | Lilrb4 expression coeff: 2.11 | Lpcat2 expression coeff: −1.56 | Lsm6 expression coeff: −1.12 | Lxn expression coeff: 1.29 | Ly6a expression coeff: 1.67 | Map2k4 expression coeff: 1.64 | Marf1 expression coeff: 1.15 | Med16 expression coeff: −0.941 | Mfsd1 expression coeff: 1.05 | Mgat1 expression coeff: 1.21 | Mgat5 expression coeff: 1.08 | Mier3 expression coeff: −1.41 | Mkl2 expression coeff: −0.923 | Mlec expression coeff: 0.999 | Morc3 expression coeff: 1.05 | Mov10 expression coeff: 1.45 | Mplkip expression coeff: −1.13 | Mrp63 expression coeff: 1.21 | Mrpl40 expression coeff: −1.08 | Mrpl52 expression coeff: 0.944 | Mrpl53 expression coeff: −1.26 | Mrps18a expression coeff: −1.11 | Ms4a4b expression coeff: 2.44 | Ms4a6b expression coeff: 2.02 | Mtfmt expression coeff: −1.57 | Mxd1 expression coeff: 1.05 | Mybbp1a expression coeff: −0.978 | Myg1 expression coeff: −1.26 | Myo1f expression coeff: 1.04 | Myo1g expression coeff: 1.31 | Naa60 expression coeff: 1.11 | Nbn expression coeff: −1.39 | Ndufaf3 expression coeff: 1.52 | Neu3 expression coeff: −1.92 | Nfil3 expression coeff: 1.77 | Nipal1 expression coeff: 1.74 | Nlrc5 expression coeff: 1.3 | Nol6 expression coeff: −1.23 | Nol9 expression coeff: −1.02 | Nop56 expression coeff: −1.41 | Npc2 expression coeff: 1.53 | Npnt expression coeff: 0.949 | Nrip1 expression coeff: 1.07 | Nsmaf expression coeff: 0.914 | Oas1a expression coeff: 2.09 | Ogfr expression coeff: 1.12 | Omd expression coeff: −1.13 | Parp3 expression coeff: 1.21 | Parp10 expression coeff: 1.34 | Parp14 expression coeff: 1.21 | Paxip1 expression coeff: −0.998 | Pdcd1 expression coeff: 1.35 | Pde4b expression coeff: 1.24 | Per1 expression coeff: −1.16 | Pfas expression coeff: −1.41 | Phc3 expression coeff: 0.936 | Phf11a expression coeff: 1.98 | Phf11b expression coeff: 1.89 | Picalm expression coeff: 1 | Pigv expression coeff: −1.36 | Pin4 expression coeff: 1.28 | Plac8 expression coeff: 1.62 | Plekha5 expression coeff: −1.23 | Plxdc2 expression coeff: −0.903 | Pml expression coeff: 1.2 | Ppif expression coeff: −1.91 | Ppp1r15a expression coeff: −1.09 | Pydc4 expression coeff: 1.37 | Pyhin1 expression coeff: 1.04 | Rab7l1 expression coeff: 2.2 | Rab8b expression coeff: 1.03 | Rab33b expression coeff: −1.1 | Rdh1 expression coeff: −1.91 | Rdh13 expression coeff: −1.75 | Rilpl2 expression coeff: 1.43 | Rnf125 expression coeff: 1.06 | Rtp4 expression coeff: 2.55 | Samd9l expression coeff: 1.2 | Sbno2 expression coeff: 1.2 | Sdc4 expression coeff: −0.924 | Sdccag3 expression coeff: 1.08 | Sema4a expression coeff: −0.903 | Sema4d expression coeff: 1.28 | Sesn3 expression coeff: 1.18 | Shank2 expression coeff: −3.62 | Sipa1 expression coeff: 1.34 | Slc25a24 expression coeff: 1.33 | Slc44a2 expression coeff: 1.22 | Slfn2 expression coeff: 1.6 | Smn1 expression coeff: −1.01 | Sntb1 expression coeff: 1.19 | Soat1 expression coeff: 1.07 | Socs1 expression coeff: −1.32 | Socs2 expression coeff: −1.33 | Socs3 expression coeff: 1.44 | Sp100 expression coeff: 1.07 | Sptssa expression coeff: −0.952 | Ssr3 expression coeff: 0.999 | St3gal6 expression coeff: −1.32 | Stab1 expression coeff: 1.65 | Stat1 expression coeff: 1.23 | Syt11 expression coeff: 0.979 | Taf1d expression coeff: 1.1 | Tango6 expression coeff: −2.16 | Tap1 expression coeff: 1.17 | Tap2 expression coeff: 1.07 | Tet3 expression coeff: 1.32 | Tmem33 expression coeff: 1.08 | Tmem176a expression coeff: −1 | Tmem176b expression coeff: −1.23 | Tmem209 expression coeff: −1.27 | Tmem229b expression coeff: 1.01 | Tnfrsf18 expression coeff: −1.12 | Tnfsf10 expression coeff: −1.88 | Tpm4 expression coeff: 0.969 | Tradd expression coeff: 1.29 | Trafd1 expression coeff: 1.81 | Trim12c expression coeff: 1.16 | Trim30a expression coeff: 1.18 | Trim34a expression coeff: 1.29 | Trim30d expression coeff: 1.14 | Trip13 expression coeff: −2.7 | Trp53inp1 expression coeff: 1.16 | Ttc19 expression coeff: 1.44 | Ttc39b expression coeff: 1.16 | Ube2h expression coeff: 1.05 | Usp18 expression coeff: 1.6 | Usp36 expression coeff: −1.09 | Vdr expression coeff: 2.04 | Vmp1 expression coeff: 1.4 | Xrcc3 expression coeff: −1.02 | Zbp1 expression coeff: 2.38 | Zc3h12a expression coeff: −1.12 | Zcchc10 expression coeff: −0.914 | Zfand6 expression coeff: 1.38 | Zfc3h1 expression coeff: 1.14 | Zfp110 expression coeff: −1.24 | Zfp825 expression coeff: −1.02
